{
  "source": "patent US20100145266A1",
  "about": "“METHOD FOR LOADING STRUCTURED SURFACES” (priority 2007, published 2010)",
  "key": {"physchem": {"experiment": "physchem", "description": "Preferably 1 mg-150 mg, more preferably 10 mg to 90 mg and most preferably 40 mg to 60 mg of paclitaxel are dissolved in one ml of DMSO."}, "[1]": {"experiment": "Stability of paclitaxel depending on pH", "format": "physicochemical"}},
  "data": [
    {"smiles": "CC(=O)O[C@H]1C(=O)[C@@]2(C)[C@H]([C@H](OC(=O)c3ccccc3)[C@]3(O)C[C@H](OC(=O)[C@H](O)[C@@H](NC(=O)c4ccccc4)c4ccccc4)C(C)=C1C3(C)C)[C@]1(OC(C)=O)CO[C@@H]1C[C@@H]2O", "note": "(relative stereo) [paclitaxel, [2aR-[2a,4,4a,6,9(R*,S*),11,12,12a,12b]]-(benzoylamino)-hydroxybenzene propionic acid 6,12b-bis-(acetyloxy)-12-(benzoyloxy)-2a-3,4,4a,5,6,9,10,11,12,12a,12b-dodecahydro-4,11-dihydroxy-4a,8,13,13-tetramethyl-5-oxo-7,11-methano-1H-cyclodeca[3,4]benz[1,2-b]oxet-9-yl ester)]", "values": [
      {"measurement": "solubility in anhydrous ethanol", "setting": "physchem", "result": "highly soluble"},
      {"measurement": "solubility in dimethyl sulfoxide (DMSO)", "setting": "physchem", "result": "highly soluble"},
      {"measurement": "solubility in methanol", "setting": "physchem", "result": "highly soluble"},
      {"measurement": "solubility", "setting": "physchem; organic solvent or mixture", "result": "≤ 150", "unit": "mg/mL"},
      {"measurement": "stability at alkaline pH", "setting": "[1]; alkaline pH", "result": "comparatively instable"},
      {"measurement": "stability at a pH between 3 and 5", "setting": "[1]; pH between 3 and 5", "result": "especially stable"}
    ]}
  ]
}
